One data set addresses P-gp (MDR1) (Homo sapiens (Human), UniProt P08183). In words: MDR1 LLC-PK1 permeability assay: efflux ratio. The data set is classed as in vitro ADME. The following applies: pig. The text has this:
(§1) Final organic concentration in the assay was 1%.

For data set [1], the target named is full-length FLAG-tagged B-Raf(V600E) (Homo sapiens (Human), UniProt P15056, V600E). Kind of data set: BRAF V600E enzyme assay (TR-FRET competitive displacement). It is filed as binding. The note with it: averaged IC50; TR-FRET tracer displacement, 60 min. Summed up:
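Displacement of 50 nM Tracer 1710 from 5 nM full-length N-terminally FLAG-tagged B-Raf(V600E), detected by TR-FRET with 0.5 nM Eu anti-FLAG antibody, in 25 mM HEPES pH 7.4, 10 mM MgCl2, 2% DMSO; 60 min at ~22 °C. Compounds 11-point, 3-fold from 10 μM; IC50 from 4-parameter fit at 50 POC.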

The target in another data set is BCRP (Homo sapiens (Human), UniProt Q9UNQ0). In words: BCRP MDCKII permeability assay: efflux ratio. The data set is classed as in vitro ADME. The note with it: dog.
In a further data set the test system is A375 cells. In words: Cellular phospho-ERK inhibition assay in A375 cells. It is filed as cell-based. The following applies: Homo sapiens, A-375, A375 cells (head prints A357), 2 hours treatment, read-out: A357 cell IC50. In a few lines: (§2)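 A375 (DMEM) or H1755 (RPMI) cells in 10% FBS treated 2 h at 37 °C with 9-point series, 66 pM–10 μM, 0.25% DMSO. Phospho-ERK1/2 (Thr202/Tyr204) measured by In Cell Western, normalised to GAPDH and to DMSO and 10 μM binimetinib controls; IC50 by 4-parameter fit.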

A short description of data set [2]: MDR1 LLC-PK1 and BCRP MDCKII permeability assay: permeability coefficient (Papp). It is filed as in vitro ADME.
Text: as §1

The test system of the next data set is H1755 cells. In words: Cellular phospho-ERK inhibition assay in H1755 cells. The note with it: Homo sapiens, NCI-H1755, 2 hours treatment, read-out: H1755 Cell IC50. The data set is classed as cell-based. Summed up: as §2

The text below walks through data of patent US12303509B2, “Compounds for the treatment of BRAF-associated diseases and disorders” (Pfizer Inc., priority 2020, dated 2025).

Where a name gives a salt, the structure may show the parent alone.

Chain of BCRP (Q9UNQ0 whole entry): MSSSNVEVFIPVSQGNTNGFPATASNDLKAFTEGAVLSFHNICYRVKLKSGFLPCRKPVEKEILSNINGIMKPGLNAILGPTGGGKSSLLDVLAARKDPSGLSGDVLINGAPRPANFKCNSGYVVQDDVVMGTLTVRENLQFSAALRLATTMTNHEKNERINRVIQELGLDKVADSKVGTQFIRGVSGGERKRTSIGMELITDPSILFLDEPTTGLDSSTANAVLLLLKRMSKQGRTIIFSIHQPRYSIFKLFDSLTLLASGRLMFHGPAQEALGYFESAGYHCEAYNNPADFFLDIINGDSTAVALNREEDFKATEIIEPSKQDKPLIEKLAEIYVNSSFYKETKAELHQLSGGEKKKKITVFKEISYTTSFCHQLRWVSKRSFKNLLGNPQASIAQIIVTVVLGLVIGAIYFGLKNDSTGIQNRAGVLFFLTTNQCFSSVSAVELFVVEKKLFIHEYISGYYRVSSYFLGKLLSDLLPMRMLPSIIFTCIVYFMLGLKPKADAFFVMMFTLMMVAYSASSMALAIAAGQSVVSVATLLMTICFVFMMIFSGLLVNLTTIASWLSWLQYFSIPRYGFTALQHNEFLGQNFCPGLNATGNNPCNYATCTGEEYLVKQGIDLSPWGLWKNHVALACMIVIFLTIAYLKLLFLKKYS
Chain of P-gp (MDR1) (P08183 whole entry, species assumed): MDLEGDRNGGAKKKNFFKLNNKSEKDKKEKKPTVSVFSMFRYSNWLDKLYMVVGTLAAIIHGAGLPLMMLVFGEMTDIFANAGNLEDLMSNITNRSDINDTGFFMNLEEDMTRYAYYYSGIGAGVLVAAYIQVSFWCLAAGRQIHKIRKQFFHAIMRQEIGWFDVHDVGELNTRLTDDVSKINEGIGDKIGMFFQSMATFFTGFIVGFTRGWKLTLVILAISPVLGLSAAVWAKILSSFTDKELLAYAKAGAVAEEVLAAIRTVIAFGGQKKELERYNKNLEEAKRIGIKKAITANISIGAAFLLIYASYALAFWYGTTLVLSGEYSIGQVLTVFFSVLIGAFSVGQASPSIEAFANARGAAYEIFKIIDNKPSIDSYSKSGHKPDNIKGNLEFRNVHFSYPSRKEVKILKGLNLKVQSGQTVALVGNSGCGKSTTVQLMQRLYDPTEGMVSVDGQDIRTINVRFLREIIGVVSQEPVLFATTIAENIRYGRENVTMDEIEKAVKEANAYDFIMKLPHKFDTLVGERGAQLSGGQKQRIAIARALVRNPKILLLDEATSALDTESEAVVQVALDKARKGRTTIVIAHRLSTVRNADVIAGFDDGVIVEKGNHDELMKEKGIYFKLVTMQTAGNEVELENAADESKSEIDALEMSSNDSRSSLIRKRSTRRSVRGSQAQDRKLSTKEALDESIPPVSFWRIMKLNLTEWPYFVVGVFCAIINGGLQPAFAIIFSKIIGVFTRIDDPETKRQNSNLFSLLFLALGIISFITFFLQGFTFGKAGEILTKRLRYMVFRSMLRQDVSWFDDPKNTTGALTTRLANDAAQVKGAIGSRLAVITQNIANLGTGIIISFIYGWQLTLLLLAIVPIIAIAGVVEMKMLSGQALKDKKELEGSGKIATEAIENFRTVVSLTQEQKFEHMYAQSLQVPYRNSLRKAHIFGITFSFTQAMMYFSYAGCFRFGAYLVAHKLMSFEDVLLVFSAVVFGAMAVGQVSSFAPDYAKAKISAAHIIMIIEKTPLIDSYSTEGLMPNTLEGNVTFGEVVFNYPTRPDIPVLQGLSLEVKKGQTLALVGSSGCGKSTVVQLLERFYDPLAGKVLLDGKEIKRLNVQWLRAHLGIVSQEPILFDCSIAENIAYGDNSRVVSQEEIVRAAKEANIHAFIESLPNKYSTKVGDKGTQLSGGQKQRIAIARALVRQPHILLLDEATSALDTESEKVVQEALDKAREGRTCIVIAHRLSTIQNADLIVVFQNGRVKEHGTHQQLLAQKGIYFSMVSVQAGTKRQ
Chain of full-length FLAG-tagged B-Raf(V600E) (P15056 whole entry V600E): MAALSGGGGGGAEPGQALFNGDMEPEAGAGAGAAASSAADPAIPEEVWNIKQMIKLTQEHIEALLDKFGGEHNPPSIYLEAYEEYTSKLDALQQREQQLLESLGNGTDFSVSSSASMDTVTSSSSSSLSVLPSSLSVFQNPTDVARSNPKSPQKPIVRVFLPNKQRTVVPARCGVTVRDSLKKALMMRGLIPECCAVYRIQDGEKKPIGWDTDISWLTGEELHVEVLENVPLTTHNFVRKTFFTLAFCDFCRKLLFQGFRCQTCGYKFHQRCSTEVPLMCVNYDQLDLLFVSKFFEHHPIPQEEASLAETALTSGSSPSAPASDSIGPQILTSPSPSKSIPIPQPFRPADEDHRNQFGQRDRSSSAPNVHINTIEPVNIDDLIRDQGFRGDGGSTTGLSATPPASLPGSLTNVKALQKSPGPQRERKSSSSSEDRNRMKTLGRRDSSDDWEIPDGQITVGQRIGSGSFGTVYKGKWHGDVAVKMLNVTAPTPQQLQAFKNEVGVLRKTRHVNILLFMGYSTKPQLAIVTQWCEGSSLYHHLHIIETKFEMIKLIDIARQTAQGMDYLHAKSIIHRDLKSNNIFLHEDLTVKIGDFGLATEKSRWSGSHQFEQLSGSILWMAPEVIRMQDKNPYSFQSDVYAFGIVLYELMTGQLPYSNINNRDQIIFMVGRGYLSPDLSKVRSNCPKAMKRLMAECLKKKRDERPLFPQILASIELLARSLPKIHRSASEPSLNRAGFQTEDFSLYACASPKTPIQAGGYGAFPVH

Take `Cc1c(Nc2c(F)c(F)cc(NS(=O)(=O)N3C[C@@H](F)[C@@H](F)C3)c2Cl)ccc2ncn(C)c(=O)c12` [Example 95, cis-N-(2-chloro-3-((3,5-dimethyl-4-oxo-3,4-dihydroquinazolin-6-yl)amino)-4,5-difluorophenyl)-3,4-difluoropyrrolidine-1-sulfonamide]: the efflux ratio at 2 h, 1 µM is 2.7 at P-gp (MDR1) and 6.8 at BCRP. For the same compound, the IC50 was determined as 2 nM in data set [1], 111 nM in the data set with A375 cells and 796 nM with H1755 cells. Also, the apparent permeability (Papp) at 2 h, 1 µM in data set [2] came to 25 ×10⁻⁶ cm/s.

In the case of `Cc1c(Nc2c(F)c(F)cc(NS(=O)(=O)N3CCCC3)c2Cl)ccc2ncn(C)c(=O)c12` [Example 96, N-(2-chloro-3-((3,5-dimethyl-4-oxo-3,4-dihydroquinazolin-6-yl)amino)-4,5-difluorophenyl)pyrrolidine-1-sulfonamide], the figures for the efflux ratio at 2 h, 1 µM on P-gp (MDR1) and at BCRP were 1.2 and 1.1, respectively. The IC50 in data set [1] came to 3 nM; with A375 cells, 40 nM; with H1755 cells, 586 nM. Further, the Papp at 2 h, 1 µM in data set [2] was 27 ×10⁻⁶ cm/s.

Take `CCN(C)S(=O)(=O)Nc1cc(F)c(F)c(Nc2ccc3ncn(C)c(=O)c3c2C)c1Cl` [Example 97, N-(2-chloro-3-((3,5-dimethyl-4-oxo-3,4-dihydroquinazolin-6-yl)amino)-4,5-difluorophenyl)-(N-ethyl-N-methyl)-sulfamide]: the efflux ratio at 2 h, 1 µM on P-gp (MDR1) is 0.9; at BCRP, 1.8. Besides, the 50% inhibitory concentration (IC50) in data set [1] worked out at 10 nM; with A375 cells it was 88 nM; in the data set with H1755 cells, 610 nM. This compound displayed an apparent permeability (Papp) at 2 h, 1 µM in data set [2] of 30 ×10⁻⁶ cm/s.

In the case of `CO[C@@H]1CCN(S(=O)(=O)Nc2cc(F)c(F)c(Nc3ccc4ncn(C)c(=O)c4c3C)c2Cl)C1` [Example 99, (R)-N-(2-chloro-3-((3,5-dimethyl-4-oxo-3,4-dihydroquinazolin-6-yl)amino)-4,5-difluorophenyl)-3-methoxypyrrolidine-1-sulfonamide], the efflux ratio at 2 h, 1 µM amounted to 1.7 on P-gp (MDR1) and 1.4 at BCRP. The 50% inhibitory concentration (IC50) in data set [1] was determined as 5 nM; with A375 cells, 33 nM; in the data set on H1755 cells it was 100 nM. Besides, the Papp at 2 h, 1 µM in data set [2] turned out to be 34 ×10⁻⁶ cm/s.

Take `Cc1c(Nc2cc(Cl)cc(NS(=O)(=O)N3CC[C@@H](F)C3)c2F)ccc2ncn(C)c(=O)c12` [Example 103, (R)-N-(5-chloro-3-((3,5-dimethyl-4-oxo-3,4-dihydroquinazolin-6-yl)amino)-2-fluorophenyl)-3-fluoropyrrolidine-1-sulfonamide]: the efflux ratio at 2 h, 1 µM was found to be 3.2 on P-gp (MDR1) and 3.5 at BCRP. For the same compound, the 50% inhibitory concentration (IC50) in data set [1] was 5 nM; in the data set on A375 cells it was 118 nM; in the data set on H1755 cells, 365 nM. The Papp at 2 h, 1 µM in data set [2] came out at 25 ×10⁻⁶ cm/s.

In the case of `Cc1c(Nc2cc(Cl)cc(NS(=O)(=O)N3CCCC3)c2F)ccc2ncn(C)c(=O)c12` [Example 104, N-(5-chloro-3-((3,5-dimethyl-4-oxo-3,4-dihydroquinazolin-6-yl)amino)-2-fluorophenyl)pyrrolidine-1-sulfonamide], the efflux ratio at 2 h, 1 µM on P-gp (MDR1) amounted to 1.2; at BCRP, 1.3. The values for the half-inhibitory concentration (IC50) (in data set [1]; in the data set with A375 cells; with H1755 cells) were 5 nM, 133 nM and 307 nM, respectively. In data set [2], the apparent permeability (Papp) at 2 h, 1 µM worked out at 22 ×10⁻⁶ cm/s.

As to `CC[C@@H]1CCN(S(=O)(=O)Nc2ccc(F)c(Nc3ccc4ncn(C)c(=O)c4c3Cl)c2Cl)C1` [Example 106, (R)-N-(2-chloro-3-((5-chloro-3-methyl-4-oxo-3,4-dihydroquinazolin-6-yl)amino)-4-fluorophenyl)-3-ethylpyrrolidine-1-sulfonamide trifluoroacetate], the results for the efflux ratio at 2 h, 1 µM at P-gp (MDR1) and at BCRP were 1.2 and 0.8, respectively. Moreover, the results for the half-inhibitory concentration (IC50) (in data set [1]; in the data set with A375 cells; in the data set on H1755 cells) were 12 nM, 131 nM and 430 nM, respectively. This compound also registered a Papp at 2 h, 1 µM in data set [2] of 22 ×10⁻⁶ cm/s.

Take `Cn1cnc2ccc(Oc3c(F)ccc(NS(=O)(=O)N4CC[C@H](F)C4)c3Cl)c(Cl)c2c1=O` [Example 107, (S)-N-(2-chloro-3-((5-chloro-3-methyl-4-oxo-3,4-dihydroquinazolin-6-yl)oxy)-4-fluorophenyl)-3-fluoropyrrolidine-1-sulfonamide]: the results for the efflux ratio at 2 h, 1 µM at P-gp (MDR1) and on BCRP were 2.7 and 1.9, respectively. Further, the IC50 in data set [1] amounted to 1 nM; in the data set with A375 cells, 8 nM; with H1755 cells it was 116 nM. In data set [2], this compound registered a Papp at 2 h, 1 µM of 30 ×10⁻⁶ cm/s.

Take `Cn1cnc2ccc(Oc3c(F)ccc(NS(=O)(=O)N4CC5CC5C4)c3Cl)c(Cl)c2c1=O` (stereo not drawn) [Example 108, N-(2-chloro-3-((5-chloro-3-methyl-4-oxo-3,4-dihydroquinazolin-6-yl)oxy)-4-fluorophenyl)-3-azabicyclo[3.1.0]hexane-3-sulfonamide]: the efflux ratio at 2 h, 1 µM at P-gp (MDR1) came out at 1.2; on BCRP it was 0.8. The results for the IC50 (in data set [1]; in the data set with A375 cells; with H1755 cells) were 1 nM, 14 nM and 1590 nM, respectively. Besides, the apparent permeability (Papp) at 2 h, 1 µM in data set [2] was found to be 25 ×10⁻⁶ cm/s.

On to `CCN(C)S(=O)(=O)Nc1ccc(F)c(Oc2ccc3ncn(C)c(=O)c3c2Cl)c1Cl` [Example 109, N-(2-chloro-3-((5-chloro-3-methyl-4-oxo-3,4-dihydroquinazolin-6-yl)oxy)-4-fluorophenyl)-(N-ethyl-N-methyl)-sulfamide], for which the efflux ratio at 2 h, 1 µM at P-gp (MDR1) is 1.1; on BCRP it was 0.8. In addition, the results for the IC50 (in data set [1]; with A375 cells; in the data set on H1755 cells) were 7 nM, 13 nM and 272 nM, respectively. Moreover, the apparent permeability coefficient (Papp) at 2 h, 1 µM in data set [2] worked out at 34 ×10⁻⁶ cm/s.

In the case of `CN(C)S(=O)(=O)Nc1ccc(F)c(Oc2ccc3ncn(C)c(=O)c3c2Cl)c1Cl` [Example 110, N-(2-chloro-3-((5-chloro-3-methyl-4-oxo-3,4-dihydroquinazolin-6-yl)oxy)-4-fluorophenyl)-(N,N-dimethyl)-sulfamide], the efflux ratio at 2 h, 1 µM at P-gp (MDR1) turned out to be 1.5; at BCRP, 1.4. For the same compound, the figures for the IC50 (in data set [1]; with A375 cells; in the data set on H1755 cells) were 8 nM, 6 nM and 48 nM, respectively. This compound also registered a Papp at 2 h, 1 µM in data set [2] of 34 ×10⁻⁶ cm/s.

Take `Cc1c(Nc2c(F)ccc(NS(=O)(=O)N3CCCC3)c2F)ccc2ncn(C)c(=O)c12` [Example 113, N-(3-((3,5-dimethyl-4-oxo-3,4-dihydroquinazolin-6-yl)amino)-2,4-difluorophenyl)pyrrolidine-1-sulfonamide trifluoroacetate]: the efflux ratio at 2 h, 1 µM was 1.3 on P-gp (MDR1) and 1.9 at BCRP. The IC50 in data set [1] was 38 nM; with A375 cells, 40 nM; with H1755 cells, 358 nM. Further, in data set [2], the Papp at 2 h, 1 µM was 18 ×10⁻⁶ cm/s.

On to `Cc1c(Nc2c(F)ccc(NS(=O)(=O)N3CC[C@@H](F)C3)c2F)ccc2ncn(C)c(=O)c12` [Example 114, (R)-N-(3-((3,5-dimethyl-4-oxo-3,4-dihydroquinazolin-6-yl)amino)-2,4-difluorophenyl)-3-fluoropyrrolidine-1-sulfonamide trifluoroacetate], for which the efflux ratio at 2 h, 1 µM on P-gp (MDR1) came to 2.2; at BCRP, 5.2. The IC50 in data set [1] stood at 16 nM; in the data set on A375 cells, 36 nM; in the data set with H1755 cells it was 174 nM. This compound yielded a Papp at 2 h, 1 µM in data set [2] of 31 ×10⁻⁶ cm/s.

For the compound `COCC1CN(S(=O)(=O)Nc2ccc(F)c(Oc3ccc4ncn(C)c(=O)c4c3F)c2Cl)C1` [Example 121, N-(2-chloro-4-fluoro-3-((5-fluoro-3-methyl-4-oxo-3,4-dihydroquinazolin-6-yl)oxy)phenyl)-3-(methoxymethyl)azetidine-1-sulfonamide], the efflux ratio at 2 h, 1 µM was found to be 1.9 at P-gp (MDR1) and 6 at BCRP. Besides, the half-maximal inhibitory concentration (IC50) in data set [1] stood at 9 nM; in the data set on A375 cells, 7 nM; in the data set with H1755 cells, 18 nM. In data set [2], this compound registered a Papp at 2 h, 1 µM of 35 ×10⁻⁶ cm/s.

`Cc1c(Nc2c(F)ccc(NS(=O)(=O)N3CCC3)c2Cl)ccc2ncn(C)c(=O)c12` [Example 124, N-(2-chloro-3-((3,5-dimethyl-4-oxo-3,4-dihydroquinazolin-6-yl)amino)-4-fluorophenyl)azetidine-1-sulfonamide trifluoroacetate]: the figures for the efflux ratio at 2 h, 1 µM on P-gp (MDR1) and on BCRP were 1.1 and 1.3, respectively. For the same compound, the IC50 came out at 17 nM in data set [1], 21 nM in the data set with A375 cells and 10000 nM in the data set with H1755 cells. In data set [2], this compound returned an apparent permeability (Papp) at 2 h, 1 µM of 43 ×10⁻⁶ cm/s.

With `Cc1c(Nc2c(F)ccc(NS(=O)(=O)N3CC(F)C3)c2Cl)ccc2ncn(C)c(=O)c12` [Example 125, N-(2-chloro-3-((3,5-dimethyl-4-oxo-3,4-dihydroquinazolin-6-yl)amino)-4-fluorophenyl)-3-fluoroazetidine-1-sulfonamide], the results for the efflux ratio at 2 h, 1 µM at P-gp (MDR1) and on BCRP were 1.2 and 1.6, respectively. The IC50 stood at 5 nM in data set [1], 18 nM with A375 cells and 1010 nM with H1755 cells. The compound further showed a Papp at 2 h, 1 µM in data set [2] of 37 ×10⁻⁶ cm/s.
